Holding throughout (experiment): biochemical
Set-up in all cases: Upstate KinaseProfiler in vitro kinase activity assay, per cent of DMSO control
Holding throughout (conditions): read-out: Activity (% of Control)

The target in test [1] is CDK2/cyclinA(h) (Homo sapiens, UniProt P24941). The method in brief:
(§1)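 Profiling done with Upstate KinaseProfiler service across 100 kinases, resveratrol tested at 20 μM; activity expressed relative to control.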

For test [2], the target named is T1, Tie2(h) (Homo sapiens, UniProt Q02763).
T1 construct: gene TEK
Summed up:
as §1

Test [3] has as its target CDK7/cyclinH/MAT1(h) (Homo sapiens, UniProt P50613). Summed up: as §1
In test [4] the target is T2, GSK3ß(h) (Homo sapiens, UniProt P49841).
T2 construct: gene GSK3B
T2 sequence (P49841 whole entry): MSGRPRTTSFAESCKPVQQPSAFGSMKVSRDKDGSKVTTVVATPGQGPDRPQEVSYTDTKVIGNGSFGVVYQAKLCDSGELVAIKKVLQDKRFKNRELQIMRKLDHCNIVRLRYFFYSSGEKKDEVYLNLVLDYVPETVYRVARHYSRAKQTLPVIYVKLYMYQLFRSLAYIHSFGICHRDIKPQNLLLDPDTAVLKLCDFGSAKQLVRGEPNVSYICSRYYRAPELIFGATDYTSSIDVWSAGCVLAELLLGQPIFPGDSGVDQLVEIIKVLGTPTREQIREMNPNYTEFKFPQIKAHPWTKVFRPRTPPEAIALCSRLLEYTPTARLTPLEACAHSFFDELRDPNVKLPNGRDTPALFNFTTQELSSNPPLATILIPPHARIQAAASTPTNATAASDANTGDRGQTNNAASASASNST
The method in brief: as §1

Test [5] has as its target T3, SIK(h) (Homo sapiens, UniProt P57059).
T3 construct: gene SIK1
Summed up: as §1

In test [6] the target is T4, MEK1(h) (Homo sapiens, UniProt Q02750).
T4 construct: gene MAP2K1
T4 sequence (Q02750 whole entry): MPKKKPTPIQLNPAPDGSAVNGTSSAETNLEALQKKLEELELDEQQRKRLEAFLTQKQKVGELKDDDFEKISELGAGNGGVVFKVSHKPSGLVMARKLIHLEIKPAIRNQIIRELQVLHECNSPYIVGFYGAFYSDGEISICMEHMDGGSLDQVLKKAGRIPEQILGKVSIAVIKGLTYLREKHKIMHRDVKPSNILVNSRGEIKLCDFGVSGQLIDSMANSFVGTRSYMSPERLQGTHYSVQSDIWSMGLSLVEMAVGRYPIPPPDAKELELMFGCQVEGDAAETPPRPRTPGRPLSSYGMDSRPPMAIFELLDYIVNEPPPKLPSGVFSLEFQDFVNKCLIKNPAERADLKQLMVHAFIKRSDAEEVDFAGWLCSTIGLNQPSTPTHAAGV
Summed up: as §1

The target of test [7] is T5, IGF-1R(h) (Homo sapiens, UniProt P08069).
T5 construct: gene IGF1R
T5 sequence (P08069 whole entry): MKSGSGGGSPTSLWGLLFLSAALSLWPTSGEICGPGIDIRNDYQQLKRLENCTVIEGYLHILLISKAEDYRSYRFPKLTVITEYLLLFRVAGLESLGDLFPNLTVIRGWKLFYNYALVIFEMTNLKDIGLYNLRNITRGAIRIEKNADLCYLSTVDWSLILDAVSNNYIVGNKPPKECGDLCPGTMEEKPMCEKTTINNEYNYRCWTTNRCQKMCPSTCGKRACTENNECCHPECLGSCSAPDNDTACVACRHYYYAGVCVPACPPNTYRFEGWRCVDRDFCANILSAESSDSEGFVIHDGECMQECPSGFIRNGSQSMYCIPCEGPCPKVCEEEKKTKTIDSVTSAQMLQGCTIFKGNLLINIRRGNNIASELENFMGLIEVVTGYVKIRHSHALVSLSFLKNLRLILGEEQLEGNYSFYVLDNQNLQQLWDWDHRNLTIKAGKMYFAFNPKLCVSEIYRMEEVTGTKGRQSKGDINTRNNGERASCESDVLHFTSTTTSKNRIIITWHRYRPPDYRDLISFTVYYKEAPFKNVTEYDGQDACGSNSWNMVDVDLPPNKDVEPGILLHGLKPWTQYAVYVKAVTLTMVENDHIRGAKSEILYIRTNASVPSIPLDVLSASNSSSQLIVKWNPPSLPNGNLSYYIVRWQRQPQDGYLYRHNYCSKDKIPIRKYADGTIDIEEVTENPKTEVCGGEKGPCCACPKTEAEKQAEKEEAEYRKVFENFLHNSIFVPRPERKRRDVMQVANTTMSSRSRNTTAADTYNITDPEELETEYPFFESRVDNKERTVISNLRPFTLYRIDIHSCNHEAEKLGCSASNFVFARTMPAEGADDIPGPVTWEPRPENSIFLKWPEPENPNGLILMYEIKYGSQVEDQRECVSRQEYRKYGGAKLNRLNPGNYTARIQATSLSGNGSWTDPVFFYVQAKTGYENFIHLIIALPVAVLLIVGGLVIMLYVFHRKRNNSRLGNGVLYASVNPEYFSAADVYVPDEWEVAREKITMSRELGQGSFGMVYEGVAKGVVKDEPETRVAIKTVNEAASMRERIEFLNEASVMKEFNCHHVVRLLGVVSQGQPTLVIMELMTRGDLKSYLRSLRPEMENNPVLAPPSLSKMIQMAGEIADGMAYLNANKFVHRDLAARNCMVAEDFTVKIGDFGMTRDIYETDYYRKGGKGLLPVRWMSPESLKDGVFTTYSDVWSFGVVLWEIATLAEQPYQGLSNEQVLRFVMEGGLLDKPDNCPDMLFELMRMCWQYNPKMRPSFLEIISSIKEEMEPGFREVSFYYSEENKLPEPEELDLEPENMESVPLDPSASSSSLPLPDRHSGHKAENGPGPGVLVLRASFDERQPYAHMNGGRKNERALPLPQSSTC
The method in brief:
as §1

The target in test [8] is T6, PI 3-Kinaseγ(h) (Homo sapiens, UniProt P48736).
T6 construct: gene PIK3CG
T6 sequence (P48736 whole entry): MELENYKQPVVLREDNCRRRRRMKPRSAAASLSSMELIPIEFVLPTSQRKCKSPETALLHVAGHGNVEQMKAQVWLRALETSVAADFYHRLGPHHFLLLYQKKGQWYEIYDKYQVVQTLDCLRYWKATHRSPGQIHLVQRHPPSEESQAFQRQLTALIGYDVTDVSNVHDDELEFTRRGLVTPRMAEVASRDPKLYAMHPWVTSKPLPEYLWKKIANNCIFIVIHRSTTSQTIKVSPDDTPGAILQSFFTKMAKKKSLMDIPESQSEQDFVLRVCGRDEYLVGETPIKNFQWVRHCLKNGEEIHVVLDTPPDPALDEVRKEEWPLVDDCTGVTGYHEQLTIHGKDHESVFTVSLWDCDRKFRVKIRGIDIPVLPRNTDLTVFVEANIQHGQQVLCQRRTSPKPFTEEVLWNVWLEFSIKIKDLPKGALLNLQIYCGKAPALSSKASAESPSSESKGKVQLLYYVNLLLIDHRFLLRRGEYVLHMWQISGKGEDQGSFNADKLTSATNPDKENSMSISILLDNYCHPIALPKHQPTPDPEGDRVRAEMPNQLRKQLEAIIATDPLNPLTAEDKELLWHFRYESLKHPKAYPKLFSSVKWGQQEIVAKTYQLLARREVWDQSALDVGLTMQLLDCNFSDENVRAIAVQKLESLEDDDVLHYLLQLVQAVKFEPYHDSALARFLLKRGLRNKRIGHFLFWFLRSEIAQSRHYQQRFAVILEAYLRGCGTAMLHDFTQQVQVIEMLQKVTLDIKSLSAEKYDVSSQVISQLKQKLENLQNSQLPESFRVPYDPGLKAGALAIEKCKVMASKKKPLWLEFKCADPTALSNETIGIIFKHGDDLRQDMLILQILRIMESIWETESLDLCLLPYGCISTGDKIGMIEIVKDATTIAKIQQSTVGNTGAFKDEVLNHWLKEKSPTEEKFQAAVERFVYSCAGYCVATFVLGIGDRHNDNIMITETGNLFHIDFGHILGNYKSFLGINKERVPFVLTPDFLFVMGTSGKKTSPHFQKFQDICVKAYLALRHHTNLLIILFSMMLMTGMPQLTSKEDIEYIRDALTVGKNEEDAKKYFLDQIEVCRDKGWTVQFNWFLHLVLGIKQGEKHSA
The method in brief: as §1

Test [9] has as its target NEK6(h) (Homo sapiens, UniProt Q9HC98). The method in brief:
as §1

The target of test [10] is T7, JNK2α2(h) (Homo sapiens, UniProt P45984).
T7 construct: gene MAPK9; isoform alpha2
T7 sequence (P45984 whole entry, canonical isoform): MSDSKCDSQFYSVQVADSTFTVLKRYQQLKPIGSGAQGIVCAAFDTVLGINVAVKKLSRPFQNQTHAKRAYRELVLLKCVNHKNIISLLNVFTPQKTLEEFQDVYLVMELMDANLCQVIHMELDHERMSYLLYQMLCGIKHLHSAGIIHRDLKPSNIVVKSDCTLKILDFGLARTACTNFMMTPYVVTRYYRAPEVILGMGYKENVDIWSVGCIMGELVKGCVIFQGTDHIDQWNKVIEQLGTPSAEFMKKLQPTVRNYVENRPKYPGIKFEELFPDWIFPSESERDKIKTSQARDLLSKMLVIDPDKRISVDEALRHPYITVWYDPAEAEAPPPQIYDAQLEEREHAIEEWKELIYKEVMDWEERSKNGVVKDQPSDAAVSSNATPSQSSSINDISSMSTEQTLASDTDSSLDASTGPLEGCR
Summed up: as §1

Test [11] has as its target T8, PKCßI(h) (Homo sapiens, UniProt P05771).
T8 construct: gene PRKCB; isoform beta I
The method in brief: as §1

Test [12] deals with T9, PKD2(h) (Homo sapiens, UniProt Q9BZL6).
T9 construct: gene PRKD2
Summed up:
as §1

In test [13] the target is T10, p70S6K(h) (Homo sapiens, UniProt P23443).
T10 construct: gene RPS6KB1
Summed up:
as §1

For test [14], the target named is NEK2(h) (Homo sapiens, UniProt P51955). Summed up: as §1
Sequence of NEK2(h) (P51955 whole entry): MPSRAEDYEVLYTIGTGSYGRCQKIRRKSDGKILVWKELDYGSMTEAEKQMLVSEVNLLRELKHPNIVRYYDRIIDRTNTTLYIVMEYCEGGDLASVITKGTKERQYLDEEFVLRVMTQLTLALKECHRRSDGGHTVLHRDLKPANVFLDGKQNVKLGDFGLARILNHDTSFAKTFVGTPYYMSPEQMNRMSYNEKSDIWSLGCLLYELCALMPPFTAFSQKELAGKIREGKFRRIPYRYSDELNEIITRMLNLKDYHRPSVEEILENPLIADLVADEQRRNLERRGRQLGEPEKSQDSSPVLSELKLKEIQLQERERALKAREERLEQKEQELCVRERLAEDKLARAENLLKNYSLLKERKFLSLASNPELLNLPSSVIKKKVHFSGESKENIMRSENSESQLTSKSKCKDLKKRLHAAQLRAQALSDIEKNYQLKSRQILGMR
The target of test [15] is T11, Fms(h) (Homo sapiens, UniProt P07333).
T11 construct: gene CSF1R
The method in brief:
as §1

The target in test [16] is T12, SAPK3(h) (Homo sapiens, UniProt P53778).
T12 construct: gene MAPK12
Summed up:
as §1

Test [17] has as its target T13, SAPK4(h) (Homo sapiens, UniProt O15264).
T13 construct: gene MAPK13
The method in brief:
as §1

SMILES strings stand for the structures.

T8 sequence (P05771 whole entry, canonical isoform): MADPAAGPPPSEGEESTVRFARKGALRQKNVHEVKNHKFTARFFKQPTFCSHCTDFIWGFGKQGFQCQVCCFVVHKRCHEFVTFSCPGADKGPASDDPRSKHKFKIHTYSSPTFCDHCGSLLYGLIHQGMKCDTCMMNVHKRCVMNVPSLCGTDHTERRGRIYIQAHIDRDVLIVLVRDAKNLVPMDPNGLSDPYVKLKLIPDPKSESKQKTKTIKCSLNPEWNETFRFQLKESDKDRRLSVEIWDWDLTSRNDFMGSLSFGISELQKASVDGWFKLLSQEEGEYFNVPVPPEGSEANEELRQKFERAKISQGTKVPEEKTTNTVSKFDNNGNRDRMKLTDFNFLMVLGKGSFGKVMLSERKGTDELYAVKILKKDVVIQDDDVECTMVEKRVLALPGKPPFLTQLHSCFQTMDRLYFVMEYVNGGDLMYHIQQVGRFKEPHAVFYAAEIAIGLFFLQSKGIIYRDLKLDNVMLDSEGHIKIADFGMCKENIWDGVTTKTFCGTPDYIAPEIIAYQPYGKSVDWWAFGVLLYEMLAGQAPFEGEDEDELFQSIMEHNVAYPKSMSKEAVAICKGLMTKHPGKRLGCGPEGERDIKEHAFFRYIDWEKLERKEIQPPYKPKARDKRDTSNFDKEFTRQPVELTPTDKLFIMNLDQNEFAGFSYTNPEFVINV

Turning to `Oc1ccc(/C=C/c2cc(O)cc(O)c2)cc1` [Res, resveratrol], the remaining activity at 20 µM in test [1] came out at 80 ± 1%; in test [2], 94 ± 8%; in test [3], 95 ± 1%; in [4] it was 92%; in test [5], 76 ± 1%; in [6], 110 ± 5%. The remaining activity at 20 µM in [7] turned out to be 75%; in [8], 101 ± 1%; in test [9], 140 ± 16%; in test [10] it was 110 ± 4%; in [11], 103 ± 5%; in [12], 88 ± 5%. In addition, the remaining activity at 20 µM in [13] was determined as 21 ± 1%; in test [14], 102 ± 4%; in [15], 61 ± 2%; in test [16], 110 ± 5%; in test [17], 92 ± 4%.

For the origin of these results see publication PMC2806030, “Inhibition of mammalian S6 kinase by resveratrol suppresses autophagy” (Aging (Albany NY), 2009).
